Assay results taken from ChEMBL document CHEMBL1649156, “Antianaerobic activity of sulopenem compared to six other agents” (2009).

Experiments:
Format in all cases: functional
Bacteroides uniformis = test: Antimicrobial activity in Bacteroides uniformis by CLSI agar dilution method in presence of Sulbactam
[1] = system: Enterocloster clostridioformis; test: Antimicrobial activity in Clostridium clostridioforme by CLSI agar dilution method in presence of Sulbactam
[2] = system: Prevotella melaninogenica; test: Antimicrobial activity in Prevotella melaninogenica by CLSI agar dilution method in presence of Sulbactam
Actinomyces = test: Antimicrobial activity in Actinomyces by CLSI agar dilution method in presence of Sulbactam
Clostridium sp. = test: Antimicrobial activity in Clostridium sp. by CLSI agar dilution method in presence of Sulbactam
Porphyromonas gingivalis = test: Antimicrobial activity in Porphyromonas gingivalis by CLSI agar dilution method in presence of Sulbactam
Prevotella sp. = test: Antimicrobial activity in Prevotella sp.by CLSI agar dilution method in presence of Sulbactam
Prevotella bivia = test: Antimicrobial activity in Prevotella bivia by CLSI agar dilution method in presence of Sulbactam
Parvimonas micra = test: Antimicrobial activity in Micromonas micros by CLSI agar dilution method in presence of Sulbactam
Prevotella bergensis = test: Antimicrobial activity in Prevotella bergensis by CLSI agar dilution method in presence of Sulbactam; conditions: Hallella bergensis
Bacteroides fragilis = test: Antimicrobial activity in Bacteroides fragilis by CLSI agar dilution method in presence of Sulbactam
[3] = system: Fusobacterium necrophorum; test: Antimicrobial activity in Fusobacterium necrophorum by CLSI agar dilution method in presence of Sulbactam
[4] = system: Peptoniphilus asaccharolyticus; test: Antimicrobial activity in Peptoniphilus asaccharolyticus by CLSI agar dilution method in presence of Sulbactam
Lactobacillus = test: Antimicrobial activity in Lactobacillus by CLSI agar dilution method in presence of Sulbactam
Thomasclavelia ramosa = test: Antimicrobial activity in Clostridium ramosum by CLSI agar dilution method in presence of Sulbactam
Tissierella praeacuta = test: Antimicrobial activity in Clostridium hastiforme by CLSI agar dilution method in presence of Sulbactam
Phocaeicola vulgatus = test: Antimicrobial activity in Bacteroides vulgatus by CLSI agar dilution method in presence of Sulbactam
Prevotella corporis = test: Antimicrobial activity in Prevotella corporis by CLSI agar dilution method in presence of Sulbactam
Hoylesella loescheii = test: Antimicrobial activity in Prevotella loescheii by CLSI agar dilution method in presence of Sulbactam
Fusobacterium varium = test: Antimicrobial activity in Fusobacterium varium by CLSI agar dilution method in presence of Sulbactam
Anaerococcus tetradius = test: Antimicrobial activity in Anaerococcus tetradius by CLSI agar dilution method in presence of Sulbactam
Prevotella buccae = test: Antimicrobial activity in Prevotella buccae by CLSI agar dilution method in presence of Sulbactam; conditions: Segatella buccae
Bacteroides ovatus = test: Antimicrobial activity in Bacteroides ovatus by CLSI agar dilution method in presence of Sulbactam
[5] = system: Bacteroides thetaiotaomicron; test: Antimicrobial activity in Bacteroides thetaiotaomicron by CLSI agar dilution method in presence of Sulbactam
Prevotella disiens = test: Antimicrobial activity in Prevotella disiens by CLSI agar dilution method in presence of Sulbactam
Hoylesella oralis = test: Antimicrobial activity in Prevotella oralis group by CLSI agar dilution method in presence of Sulbactam
Clostridium tertium = test: Antimicrobial activity in Clostridium tertium by CLSI agar dilution method in presence of Sulbactam
Cutibacterium acnes = test: Antimicrobial activity in Propionibacterium acnes by CLSI agar dilution method in presence of Sulbactam
Fusobacterium mortiferum = test: Antimicrobial activity in Fusobacterium mortiferum by CLSI agar dilution method in presence of Sulbactam
Clostridium cadaveris = test: Antimicrobial activity in Clostridium cadaveris by CLSI agar dilution method in presence of Sulbactam
[6] = system: Paeniclostridium sordellii; test: Antimicrobial activity in Clostridium sordellii by CLSI agar dilution method in presence of Sulbactam; conditions: Paraclostridium sordellii
Clostridium perfringens = test: Antimicrobial activity in Clostridium perfringens by CLSI agar dilution method in presence of Sulbactam
[7] = system: Paraclostridium bifermentans; test: Antimicrobial activity in Clostridium bifermentans by CLSI agar dilution method in presence of Sulbactam
Prevotella baroniae = test: Antimicrobial activity in Prevotella baroniae by CLSI agar dilution method in presence of Sulbactam; conditions: Segatella baroniae
[8] = system: Porphyromonas asaccharolytica; test: Antimicrobial activity in Porphyromonas asaccharolytica by CLSI agar dilution method in presence of Sulbactam
[9] = system: Peptostreptococcus anaerobius; test: Antimicrobial activity in Peptostreptococcus anaerobius by CLSI agar dilution method in presence of Sulbactam
Clostridioides difficile = test: Antimicrobial activity in Clostridium difficile by CLSI agar dilution method in presence of Sulbactam
Clostridium butyricum = test: Antimicrobial activity in Clostridium butyricum by CLSI agar dilution method in presence of Sulbactam
Prevotella veroralis = test: Antimicrobial activity in Prevotella veroralis by CLSI agar dilution method in presence of Sulbactam
Prevotella denticola = test: Antimicrobial activity in Prevotella denticola by CLSI agar dilution method in presence of Sulbactam
Prevotella intermedia = test: Antimicrobial activity in Prevotella intermedia by CLSI agar dilution method in presence of Sulbactam
Bacteroides stercoris = test: Antimicrobial activity in Bacteroides stercoris by CLSI agar dilution method in presence of Sulbactam
Finegoldia magna = test: Antimicrobial activity in Finegoldia magna by CLSI agar dilution method in presence of Sulbactam
Eggerthella lenta = test: Antimicrobial activity in Eggerthella lenta by CLSI agar dilution method in presence of Sulbactam
Prevotella salivae = test: Antimicrobial activity in Prevotella salivae by CLSI agar dilution method in presence of Sulbactam; conditions: Segatella salivae
Prevotella nigrescens = test: Antimicrobial activity in Prevotella nigrescens by CLSI agar dilution method in presence of Sulbactam
[Clostridium] innocuum = Antimicrobial activity in Clostridium innocuum by CLSI agar dilution method in presence of Sulbactam
Fusobacterium nucleatum = test: Antimicrobial activity in Fusobacterium nucleatum by CLSI agar dilution method in presence of Sulbactam
[10] = system: Parabacteroides distasonis; test: Antimicrobial activity in Bacteroides distasonis by CLSI agar dilution method in presence of Sulbactam
Bifidobacterium = test: Antimicrobial activity in Bifidobacterium by CLSI agar dilution method in presence of Sulbactam
Anaerococcus prevotii = test: Antimicrobial activity in Anaerococcus prevotii by CLSI agar dilution method in presence of Sulbactam

## CC1(C)S[C@@H]2[C@H](NC(=O)[C@H](N)c3ccccc3)C(=O)N2[C@H]1C(=O)O [AMPICILLIN]
Bacteroides uniformis
  MIC: 1 µg/mL
  MIC50: 1 µg/mL
[1]
  MIC: 1 µg/mL
[2]
  MIC50: 0.5 µg/mL
  MIC90: 2 µg/mL
Actinomyces
  MIC: ≤ 0.125 µg/mL
  MIC50: 0.25 µg/mL
Clostridium sp.
  MIC50: 0.25 µg/mL
  MIC90: 0.5 µg/mL
Porphyromonas gingivalis
  MIC: ≤ 0.125 µg/mL
Prevotella sp.
  MIC: ≤ 0.125 µg/mL
Prevotella bivia
  MIC50: 1 µg/mL
  MIC90: 4 µg/mL
Parvimonas micra
  MIC: ≤ 0.125 µg/mL
  MIC50: ≤ 0.125 µg/mL
  MIC90: 1 µg/mL
Prevotella bergensis
  MIC: 1 µg/mL
Bacteroides fragilis
  MIC50: 1 µg/mL
  MIC90: 8 µg/mL
[3]
  MIC: ≤ 0.125 µg/mL
  MIC50: ≤ 0.125 µg/mL
[4]
  MIC: ≤ 0.125 µg/mL
  MIC50: ≤ 0.125 µg/mL
Lactobacillus
  MIC50: 1 µg/mL
  MIC90: 1 µg/mL
Thomasclavelia ramosa
  MIC: ≤ 0.125 µg/mL
Tissierella praeacuta
  MIC: 1 µg/mL
Phocaeicola vulgatus
  MIC50: 2 µg/mL
  MIC90: 16 µg/mL
Prevotella corporis
  MIC: ≤ 0.125 µg/mL
  MIC50: ≤ 0.125 µg/mL
Hoylesella loescheii
  MIC: 0.5 µg/mL
Fusobacterium varium
  MIC50: 2 µg/mL
  MIC90: 2 µg/mL
Anaerococcus tetradius
  MIC: ≤ 0.125 µg/mL
  MIC50: ≤ 0.125 µg/mL
  MIC90: ≤ 0.125 µg/mL
Prevotella buccae
  MIC50: 0.25 µg/mL
  MIC90: 2 µg/mL
Bacteroides ovatus
  MIC: 1 µg/mL
  MIC50: 1 µg/mL
  MIC90: 4 µg/mL
[5]
  MIC50: 2 µg/mL
  MIC90: 8 µg/mL
Prevotella disiens
  MIC: ≤ 0.125 µg/mL
  MIC50: 0.25 µg/mL
Hoylesella oralis
  MIC: ≤ 0.125 µg/mL
Clostridium tertium
  MIC: 0.25 µg/mL
  MIC50: 0.25 µg/mL
Cutibacterium acnes
  MIC: ≤ 0.125 µg/mL
  MIC50: ≤ 0.125 µg/mL
  MIC90: 0.25 µg/mL
Fusobacterium mortiferum
  MIC50: 1 µg/mL
  MIC90: > 32 µg/mL
Clostridium cadaveris
  MIC: ≤ 0.125 µg/mL
[6]
  MIC: ≤ 0.125 µg/mL
Clostridium perfringens
  MIC: ≤ 0.125 µg/mL
  MIC50: ≤ 0.125 µg/mL
  MIC90: 0.25 µg/mL
[7]
  MIC: 0.5 µg/mL
Prevotella baroniae
  MIC: ≤ 0.125 µg/mL
[8]
  MIC: ≤ 0.125 µg/mL
[9]
  MIC50: 0.25 µg/mL
  MIC90: 16 µg/mL
Clostridioides difficile
  MIC50: 2 µg/mL
  MIC90: 2 µg/mL
Clostridium butyricum
  MIC: 1 µg/mL
Prevotella veroralis
  MIC: ≤ 0.125 µg/mL
Prevotella denticola
  MIC50: 0.5 µg/mL
  MIC90: 2 µg/mL
Prevotella intermedia
  MIC50: 0.25 µg/mL
  MIC90: 0.5 µg/mL
Bacteroides stercoris
  MIC: 1 µg/mL
  MIC50: 2 µg/mL
Finegoldia magna
  MIC50: 0.25 µg/mL
  MIC90: 0.5 µg/mL
Eggerthella lenta
  MIC50: 1 µg/mL
  MIC90: 2 µg/mL
Prevotella salivae
  MIC: ≤ 0.125 µg/mL
Prevotella nigrescens
  MIC50: 0.25 µg/mL
  MIC90: 0.5 µg/mL
[Clostridium] innocuum
  MIC: ≤ 0.125 µg/mL
Fusobacterium nucleatum
  MIC: ≤ 0.125 µg/mL
  MIC50: ≤ 0.125 µg/mL
  MIC90: ≤ 0.125 µg/mL
[10]
  MIC50: 8 µg/mL
  MIC90: 32 µg/mL
Bifidobacterium
  MIC: ≤ 0.125 µg/mL
  MIC50: ≤ 0.125 µg/mL
  MIC90: 0.25 µg/mL
Anaerococcus prevotii
  MIC: ≤ 0.125 µg/mL
